Experimental findings from US20120115941A1, “Compounds Affecting Glycemic Index” (SACRON INNOVATIONS PTY LIMITED, priority 2009, published 2012) are described below.

In general, IC50 refers to the midpoint of a concentration-inhibition curve.

Like-named read-outs stand apart in the source and are kept apart here.

What all share (format): biochemical
Assay [1] has as its target Bakers yeast α-glucosidase. Put plainly: Yeast α-glucosidase inhibition assay. Here is the method: (§1) Bakers yeast α-glucosidase [EC 3.2.1.20], and porcine pancreatic α-amylase [EC 3.2.1.1]were used during bioassay guided fractionation. Rat intestinal acetone powder was used as a source of mammalian α-glucosidase. The EnzChek® Ultra Amylase Assay kit (E-33651) was purchased from Molecular Probes (Eugene, Oreg., USA).
(§2) In each bioassay the hydrolysis product was measured using the Victor 2 multi-plate reader (Wallac, Turku, Finland) and all samples were tested in duplicate or triplicate. Non-enzyme controls were subtracted from the enzyme absorbance and the percentage inhibition of test samples was calculated as: […]
(§3) :wherein A and B are the absorbance of the hydrolysis product in the absence and presence of inhibitor, respectively. Percent inhibition values were expressed as mean±standard deviation. The IC50 was the concentration required for 50% inhibition of enzyme activity under the assay conditions, and values were calculated using a four-parameter fit by Microsoft Excel Solver.
Yeast α-Glucosidase Inhibition Assay
Extracts and fractions were dissolved in DMSO at 30 mg/mL or 10 mM for pure compounds, and diluted to working concentrations in sodium acetate buffer (pH 5.5). Final sample concentrations were 50 μg/mL, unless otherwise stated. The substrate, 4-methylumbelliferyl-α-D-glucopyranoside (84 μM, 45 μL), was added to 96-well plates containing 50 μL yeast α-glucosidase (3 mU/mL) and 5 μL of sample. The plate was mixed on an orbital shaker for 30 seconds and incubated for 20 minutes at 37° C. The reaction was stopped by the addition of 100 mM sodium-glycine buffer (100 μL, pH 10.6) and the plate was shaken for a further 30 seconds and the fluorescence intensity was measured at λex 355 nm, λem 460 nm. Fucoidan (20 μg/mL) was used as a positive inhibitor control, and sodium acetate buffer as a negative control.

The test system of assay [2] is rat intestinal α-glucosidase. As to the kind of experiment: Mammalian α-glucosidase inhibition assay (rat intestinal acetone powder, maltose substrate). As for the experimental part:
as §1, §2, §3
Mammalian α-Glucosidase Inhibition Assay
The α-glucosidase inhibitory activity of pure compounds was measured as described previously, with some modifications. The crude enzyme solution was prepared by suspending 50 mg of rat intestinal acetone powder in 0.9% sodium chloride solution (1.5 mL). The mixture was homogenised by sonication in ice-cold water for 10 minutes and then centrifuged at 10,000 g for 30 minutes. The resulting supernatant was used in the assay.
The substrate maltose (3 mM, 20 μL) was added to 96-well plates containing the crude α-glucosidase mixture (20 μL) and sample (10 μL). The microtitre plate was mixed on an orbital shaker for 30 seconds, incubated for 30 minutes at 37° C. and the reaction was stopped by the addition of 2 M Tris buffer (75 μL ). The glucose liberated was measured by adding 30 μL of the reaction mixture to the Glucose Hexokinase assay reagent (170 μL), which was mixed and incubated for 15 minutes at room temperature. The fluorescence of the mixture was measured at λex 340 nm, λem 470 nm.

Assay [3] concerns the target T1, porcine pancreatic α-amylase (Sus scrofa, UniProt P00690).
T1 sequence (P00690 16-511): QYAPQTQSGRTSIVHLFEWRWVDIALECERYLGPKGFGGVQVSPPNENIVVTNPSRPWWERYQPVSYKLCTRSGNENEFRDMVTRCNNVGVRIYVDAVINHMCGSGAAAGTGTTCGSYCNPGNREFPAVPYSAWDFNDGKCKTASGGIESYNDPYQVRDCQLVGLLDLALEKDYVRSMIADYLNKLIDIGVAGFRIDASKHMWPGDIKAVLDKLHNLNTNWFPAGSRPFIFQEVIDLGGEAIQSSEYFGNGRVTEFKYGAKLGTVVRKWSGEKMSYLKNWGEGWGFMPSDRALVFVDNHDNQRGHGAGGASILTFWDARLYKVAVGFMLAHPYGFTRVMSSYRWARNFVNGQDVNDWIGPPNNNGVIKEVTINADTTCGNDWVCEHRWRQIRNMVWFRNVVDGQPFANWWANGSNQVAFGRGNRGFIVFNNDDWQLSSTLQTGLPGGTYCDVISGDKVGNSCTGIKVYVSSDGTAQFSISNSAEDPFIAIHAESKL
Put plainly: Porcine α-amylase inhibition assay (EnzChek Ultra Amylase Assay kit). Here is the method: Bakers yeast α-glucosidase [EC 3.2.1.20], and porcine pancreatic α-amylase [EC 3.2.1.1]were used during bioassay guided fractionation. Rat intestinal acetone powder was used as a source of mammalian α-glucosidase.
as §2
:wherein A and B are the absorbance of the hydrolysis product in the absence and presence of inhibitor, respectively. Percent inhibition values were expressed as mean±standard deviation.
Porcine α-Amylase Inhibition Assay
This assay was performed using the EnzChek® Ultra Amylase Assay kit. Samples were dissolved in DMSO and diluted with 100 mM of 3-morpholinopropanesulfonic acid (MOPS) buffer (pH 6.9) to give a final concentration of […], unless otherwise stated.

Setting [4] is: porcine α-amylase, read-out: Amylase (porcine) IC50.

Turning to `COc1cc(-c2cc(=O)c3c(O)cc(O)cc3o2)cc(OC)c1O` [Compound 4, Tricin, reference compound], the IC50 in assay [1] is 70.6 µM; in assay [3] (Amylase (porcine) IC50, porcine α-amylase), 104 µM. Further, the “Glucosidase (rat) % Inhibition at 200 μM” value in assay [2] was 16.1%.
Consider Fucoidan [reference compound], for which the “Glucosidase (yeast) IC50” value in assay [1] (unit given in the name cell for fucoidan) came to 0.82 µg/mL.
As to `COc1cc(C(O)C(COC(=O)C=Cc2ccc(O)cc2)Oc2c(OC)cc(-c3cc(=O)c4c(O)cc(O)cc4o3)cc2OC)ccc1O` (stereo not drawn) [Compound 8, tricin-4′-O-[threo-β-guaiacyl-(9″-O-p-coumaroyl)-glyceryl]ether], the IC50 stood at 37.9 µM in assay [1] and 0.9 µM in assay [3] (setting [4]). Moreover, the “Glucosidase (rat) % Inhibition at 200 μM” value in assay [2] (200 µM) came to 10.0%. Further, in assay [3] (relative to acarbose), the “activity against porcine α-amylase, fold greater than acarbose” value was 130 fold.
For the compound `O=c1cc(-c2ccc(O)c(O)c2)oc2cc(O)cc(O)c12` [Compound 19, Luteolin, reference compound], the IC50 in assay [1] turned out to be 92.3 µM; in assay [3] (setting [4]) it was 99.5 µM. Further, the “Glucosidase (rat) % Inhibition at 200 μM” value in assay [2] is given as 4.8%.
Regarding `COc1cc(C(O)C(COC(=O)C=Cc2ccc(O)cc2)Oc2c(OC)cc(-c3cc(=O)c4c(O)cc(O)cc4o3)cc2OC)ccc1O` (stereo not drawn) [Compound 7, tricin-4′-O-[erythro-β-guaiacyl-(9″-O-p-coumaroyl)-glyceryl]ether], the IC50 came to 37.5 µM in assay [1] and 2 µM in assay [3] (setting [4]). The “Glucosidase (rat) % Inhibition at 200 μM” value in assay [2] (200 µM) turned out to be 25.7%.
Consider `COc1cc(C(OC)C(CO)Oc2c(OC)cc(-c3cc(=O)c4c(O)cc(O)cc4o3)cc2OC)ccc1O` (stereo not drawn) [Compound 6, tricin-4′-O-[erythro-β-guaiacyl-(7″-O-methyl)-glyceryl]ether], for which the IC50 was 72 µM in assay [1] and 26.5 µM in assay [3] (setting [4]). Besides, in assay [2], the “Glucosidase (rat) % Inhibition at 200 μM” value is reported as 6.1%.
For the compound `O=c1cc(-c2ccc(O)cc2)oc2cc(O)cc(O)c12` [Compound 18, Apigenin, reference compound], inhibition in assay [1] was half-maximal at 108 µM (IC50). For the same compound, the “Glucosidase (rat) % Inhibition at 200 μM” value in assay [2] is reported as −12.2%.
As to `COc1cc(C(OC)C(CO)Oc2c(OC)cc(-c3cc(=O)c4c(O)cc(O)cc4o3)cc2OC)ccc1O` (stereo not drawn) [Compound 5, tricin-4′-O-[threo-β-guaiacyl-(7″-O-methyl)-glyceryl]ether], the results for the IC50 in assay [1] and in assay [3] (setting [4]) were 95.9 µM and 31.9 µM, respectively. Moreover, the “Glucosidase (rat) % Inhibition at 200 μM” value in assay [2] came out at 6.1%.
